Measurements as given in US6696460B2, “Tetrahydropyridoethers” (Atlanta Pharma AG, priority 1998, dated 2004).

Tested on: pentagastrin-stimulated acid secretion of the perused rat stomach
Assay: Secretion-inhibiting action on the perfused rat stomach (pentagastrin-stimulated, in vivo)
Settings: anesthetized CD rat, dose 3 μmol/kg i.v.
Description: Testing of the Secretion-Inhibiting Action on the Perfused Rat Stomach
The abdomen of anesthetized rats (CD rat, female, 200-250 g; […] i.m. urethane) was opened after tracheotomy by means of a median upper abdominal incision and a PYC catheter was fixed transorally in the esophagus and another via the pylorus such that the ends of the tube just projected into the gastric lumen. The catheter leading from the pylorus led outwards into the right abdominal wall through a side opening.
After thorough rinsing (about 50-100 ml), warm physiological NaCl solution at 37° C. was continuously passed through the stomach (0.5 ml/min. pH 6.8-6.9; Braun-Unita I). The pH (pH meter 632, glass electrode EA 147; φ=5 mm, Metrohm) and, by titration with a freshly prepared 0.01 N NaOH solution to pH 7 (Dosimat 665 Metrohm), the secreted HCl were determined in the effluent in each case collected at an interval of 15 minutes.
The gastric secretion was stimulated by continuous infusion of 1 μg/kg (=1.65 ml/h) of I.v. pentagastrin (left femoral vein) about 30 min after the end of the operation (i.e after determination of 2 preliminary fractions). The substances to be tested were administered intravenously in 1 ml/kg liquid volumes 60 min after the start of the pentagastrin continuous infusion.
The body temperature of the animals was kept at a constant 37.8-38° C. by infrared irradiation and heat pads (automatic, stepless control by means of a rectal temperature sensor).

Row | SMILES | Inhibition of acid secretion [%]
1 | CO[C@@H]1c2ccn3c(C)c(C)nc3c2N[C@H](c2ccccc2)[C@H]1O [Example 1] | 100
2 | CO[C@H]1c2ccn3c(C)c(C)nc3c2N[C@H](c2ccccc2)[C@H]1O [Example 2, (7S, 8R, 9R)-2,3-Dimethyl-8-hydroxy-7-methoxy-9-phenyl-7,8,9,10-tetrahydro-imidazo[1,2-h]-[1,7]naphythyridine] | 100
3 | CCO[C@@H]1c2ccn3c(C)c(C)nc3c2N[C@H](c2ccccc2)[C@H]1O [Example 4, (7R, 8R, 9R)-2,3Dimethyl-7-ethoxy-8-hydroxy-phenyl-7,8,9,10-tetrahydro-imidazo[1,2-h]-[1,7]naphythryridine] | 100
4 | COCCO[C@H]1c2ccn3c(C)c(C)nc3c2N[C@H](c2ccccc2)[C@H]1O [Example 6, (7S, 8R, 9R)-2,3-Dimethyl-8-hydroxy-7-(2-methoxyethoxy)-9-phenyl-7,8,9,10-tetrahydro-imiazo[1,2-h][1,7]naphthyridine] | 100
5 | CO[C@@H]1[C@@H](c2ccccc2)Nc2c(ccn3c(C)c(C)nc23)[C@H]1OC [Example 8] | 100

Same assay, conditions: iv, anesthetized CD rat, dose 3 μmol/kg i.v.

Row | SMILES | inhibition at 3 µmol/kg [%]
6 | CCO[C@@H]1c2ccn3c(C)c(C)nc3c2N[C@H](c2ccccc2)[C@H]1O [Example 3, (7R, 8R, 9R)-2,3-Dimethyl-7-ethoxy-8-hydroxy-9-phenyl-7,8,9,10-tetrahydro-imidazo[1,2-h]-[1,7]naphthyridine] | 100
7 | COCCO[C@@H]1c2ccn3c(C)c(C)nc3c2N[C@H](c2ccccc2)[C@H]1O [Example 5, (7R, 8R, 9R)-2,3-Dimethyl-8-hydroxy-7-(2-methoxyethoxy)-9-phenyl-7,8,9,10-tetrahydro-imidazo[1,2-h][1,7]naphthyridine] | 100
8 | Cc1nc2c3c(ccn2c1C)[C@H](OC(C)C)[C@H](O)[C@@H](c1ccccc1)N3 [Example 7, (7S, 8R, 9R)-2,3-Dimethyl-8-hydroxy-9-phenyl-7-(2-propoxy)-7,8,9,10-tetrahydro-imidazo[1,2-h][1,7]naphthyridine] | 100

Tested on: not given
Assay: not given
Settings: not given

Row | SMILES | melting point [°C]
9 | CO[C@H]1c2ccn3c(C)c(C)nc3c2N[C@@H](c2ccccc2)[C@@H]1O [Example 1B, (7S, 8S, 9S)-2,3-Dimethyl-8-hydroxy-7-methoxy-9-phenyl-7,8,9,10-tetrahydro-imidazo[1,2-h]-[1,7]naphthyridine] | 161 to 162
10 | CO[C@@H]1c2ccn3c(C)c(C)nc3c2N[C@@H](c2ccccc2)[C@@H]1O [Example 2B, (7R, 8S, 9S)-2,3-Dimethyl-8-hydroxy-7-methoxy-9-phenyl-7,8,9,10-tetrahydro-imidazo[1,2-h]-[1,7]naphthyridine] | 171 to 172
11 | CCO[C@@H]1c2ccn3c(C)c(C)nc3c2N[C@H](c2ccccc2)[C@H]1O [Example 3, (7R, 8R, 9R)-2,3-Dimethyl-7-ethoxy-8-hydroxy-9-phenyl-7,8,9,10-tetrahydro-imidazo[1,2-h]-[1,7]naphthyridine] | 188 to 190
12 | Cc1nc2c3c(ccn2c1C)[C@H](OC(C)C)[C@H](O)[C@@H](c1ccccc1)N3 [Example 7, (7S, 8R, 9R)-2,3-Dimethyl-8-hydroxy-9-phenyl-7-(2-propoxy)-7,8,9,10-tetrahydro-imidazo[1,2-h][1,7]naphthyridine] | 168 to 169
